From publication PMC4310642 (Journal of Medicinal Chemistry, 2014)

Columns and labels:
[1] = target: PKCδ C1b domain N7R/S10R/L20R triple mutant (Mus musculus, UniProt P28867, L250R/N237R/S240R); assay: Competitive [20-3H]PDBu binding to GST-C1b domain, N7R/S10R/L20R
[2] = target: PKCδ C1b domain P11R mutant (Mus musculus, UniProt P28867, P241R); assay: Competitive [20-3H]PDBu binding to GST-C1b domain, P11R
[3] = system: PKCδ C1b domain S10R mutant; format: binding
[4] = target: PKCδ C1b domain N7R mutant (Mus musculus, UniProt P28867, N237R); assay: Competitive [20-3H]PDBu binding to GST-C1b domain, N7R
Chain of PKCδ C1b domain N7R mutant (P28867 230-280 N237R): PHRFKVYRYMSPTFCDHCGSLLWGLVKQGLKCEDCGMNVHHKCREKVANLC

Chain of PKCδ C1b domain P11R mutant (P28867 230-280 P241R): as the sequence (P28867 230-280 N237R) above, with R8N, P12R counted along it
Chain of PKCδ C1b domain N7R/S10R/L20R triple mutant (P28867 230-280 N237R/S240R/L250R): as the sequence (P28867 230-280 N237R) above, with S11R, L21R counted along it

| SMILES | reduction in binding affinity with the triple mutant N7R/S10R/L20R compared to the wild-type [1] | binding to P11R weaker than to the wild-type δC1B domain [2] | binding to S10R compared to the wild-type δC1B domain [3] | binding to N7R weaker than to the wild-type δC1B domain [4] |
| --- | --- | --- | --- | --- |
| CC(C)CC(C/C=C1\CC(CO)(COC(=O)C(C)(CO)CO)OC1=O)CC(C)C (stereo not shown) [13-E] | no further loss of affinity |  |  |  |
| CCCC(=O)O[C@@H]1[C@@H](C)[C@@]2(O)[C@@H](C=C(CO)C[C@]3(O)C(=O)C(C)=C[C@@H]23)[C@@H]2C(C)(C)[C@]12OC(=O)CCC [PDBu, phorbol 12,13-dibutyrate] |  | about 5 fold | essentially the same | about 5 fold |
